Results taken from paper PMC3608651, “A Broad Profile of Co-Dominant Epitopes Shapes the Peripheral Mycobacterium tuberculosis Specific CD8+ T-Cell Immune Response in South African Patients with Active Tuberculosis” (PLoS ONE, 2013).
Read-outs that look alike come from different tables or passages of the source.

What was measured:
Format in all cases: binding
HLA-A*30:02 [1] = target: T1, HLA-A*30:02 (Homo sapiens, UniProt P04439, D101N/D140H/D185E/E176R/F33S/G80R/H175R/K168Q/Q94H/R138E/R41S/V100E); conditions: duplicated experiments, positive binder >40%
HLA-A*68:01 = HLA-A*68:01 (Homo sapiens, UniProt P04439, A269V/D185E/E176V/E277Q/E87N/F33Y/G231S/I121M/I166T/I218V/L180W/L300P/L318F/N151K/P208A/P217A/Q86R/R169H/T345S); conditions: duplicated experiments, positive binder >40%
HLA-B*07:02 = HLA-B*07:02 (Homo sapiens, UniProt P01889); conditions: percent relative the binding of positive control peptide […]; duplicated experiments; positive binder >40%
HLA-A*02:01 = HLA-A*02:01 (Homo sapiens, UniProt P04439, D140Y/D185E/D98H/E176V/E277Q/G131W/G231S/I119V/I121R/I166T/I218V/L300P/L318F/N151K/N90K/P208A/P217A/Q86G/Q94H/R138H/R169H/T345S); conditions: plate-bound monomer 0.5 µg/ml, duplicated experiments, positive binder >40%
HLA-A*30:02 [2] = target: T1, HLA-A*30:02; conditions: time points 0-8 h
HLA-A*24:02 = HLA-A*24:02 (Homo sapiens, UniProt P04439, D101N/D140Y/D185E/E176V/E190D/F33S/G103R/G107R/I119L/I121M/I306V/K335N/L105A/L180Q/L300P/N151K/N90K/Q86E/Q94H/R106L/R138H/R89G/T104I/T345S/V100E/W191G/Y123F); conditions: duplicated experiments, positive binder >40%
HLA-B*58:01 = HLA-B*58:01 (Homo sapiens, UniProt P01889, A329T/C349S/D201E/D98Y/E176V/E187L/E204Q/E69T/G107R/I218V/I90N/K202T/L105A/L119I/N104I/N87E/Q89R/Q94S/R106L/R155S/R180L/R86G/S101N/S121R/S35A/S48A/T118I/V127L/V306I/V36M/Y140S/Y91M); conditions: duplicated experiments, positive binder >40%
HLA-C*07:01 = HLA-C*07:01 (Homo sapiens, UniProt P10321, K90N/S123Y); conditions: duplicated experiments, positive binder >40%
HLA-A*30:01 = HLA-A*30:01 (Homo sapiens, UniProt P04439, D140H/D185E/E176W/F33S/G80R/H175R/K168Q/R138E/R41S); conditions: duplicated experiments, positive binder >40%
HLA-A*30:02 [3] = target: T1, HLA-A*30:02
[4] = percent relative the binding of positive control peptide KIQNFRVYY
[5] = percent relative the binding of positive control peptide KTGGPIYKR
[6] = percent relative the binding of positive control peptide FLPSDFFPSV
[7] = percent relative the binding of positive control peptide RYLKDQQLL
[8] = percent relative the binding of positive control peptide IAMESIVIW
[9] = percent relative the binding of positive control peptide KYFDEHYEY
[10] = percent relative the binding of positive control peptide KTKDIVNGL
[11] = peptide titrated 10−4 to 10−9 M
[12] = percent relative the binding of positive control peptide […]

Substance | Bind A*30:02 (HLA-A*30:02 [1]; [4]) | Bind A*68:01 (HLA-A*68:01; [5]) | Bind B*07:02 (HLA-B*07:02) | Bind A*02:01 (HLA-A*02:01; [6]) | O-rate A*30:02 (t1/2) (HLA-A*30:02 [2]) | Bind A*24:02 (HLA-A*24:02; [7]) | Bind B*58:01 (HLA-B*58:01; [8]) | Bind C*07:01 (HLA-C*07:01; [9]) | Bind A*30:01 (HLA-A*30:01; [10]) | Aff A*30:02 (ED50) (HLA-A*30:02 [3]; [11]) | Bind A*30:02 (HLA-A*30:02 [1]; [12]) | Bind A*68:01 (HLA-A*68:01; [12]) | Bind A*02:01 (HLA-A*02:01; [12]) | Bind A*24:02 (HLA-A*24:02; [12]) | Bind B*58:01 (HLA-B*58:01; [12]) | Bind C*07:01 (HLA-C*07:01; [12]) | Bind A*30:01 (HLA-A*30:01; [12]) | Aff A*30:02 (ED50) (HLA-A*30:02 [3])
AAAWGGSGS [Rv3875_40-48] | 129% | 15% | 4% | 8% | 1.1 h | 0% | 8% | 29% | 29% | 5e-09 M |  |  |  |  |  |  |  | 
AAWGGSGSE [Rv3875_41–49] | 167% | 29% | 4% | 29% | 1.5 h | 2% | 9% | 29% | 18% | 3e-07 M |  |  |  |  |  |  |  | 
AGQAMASTE [Rv3875_79–87] | 58% | 13% | 9% | 0% | 2.3 h | 0% | 11% | 28% | 20% | 5e-09 M |  |  |  |  |  |  |  | 
ATATELNNA [Rv3875_60–68] | 67% | 0% | 12% | 31% | 3.8 h | 0% | 0% | 0% | 0% | 3e-07 M |  |  |  |  |  |  |  | 
AWGGSGSEA [Rv3875_42–50] | 90% | 11% | 6% | 4% | 1.7 h | 4% | 6% | 29% | 16% | 8e-07 M |  |  |  |  |  |  |  | 
AYHPQQFIY |  |  | 0% |  | 1.9 h |  |  |  |  |  | 111% | 5% | 13% | 60% | 35% | 43% | 6% | 1E -07 M
CGKAGCQT Y |  |  | 8% |  | 3 h |  |  |  |  |  | 138% | 60% | 44% | 32% | 35% | 5% | 28% | 8E -08 M
GQSSFYSDW |  |  | 0% |  | 3.3 h |  |  |  |  |  | 71% | 0% | 27% | 76% | 62% | 0% | 0% | 2e-08 M
GVQQKWDAT [Rv3875_53–61] | 78% | 0% | 10% | 0% | 1.3 h | 0% | 6% | 9% | 9% | 3e-08 M |  |  |  |  |  |  |  | 
IYAGSLSAL |  |  | 83% |  | 0.5 h |  |  |  |  |  | 116% | 4% | 44% | 107% | 16% | 0% | 0% | 4E -06 M
KAADMW GPS |  |  | 18% |  | 0.8 h |  |  |  |  |  | 103% | 17% | 33% | 4% | 21% | 34% | 1% | 7E -09 M
KFQDAYNAA |  |  | 0% |  | 0.7 h |  |  |  |  |  | 113% | 0% | 19% | 0% | 0% | 0% | 0% | 8e-06 M
LQNLARTIS [Rv3875_69–77] | 77% | 8% | 10% | 27% | 2.1 h | 26% | 20% | 3% | 11% | 1e-08 M |  |  |  |  |  |  |  | 
LVANNT RLW |  |  | 50% |  | 0.5 h |  |  |  |  |  | 68% | 38% | 21% | 88% | 50% | 26% | 2% | 5e-07 M
MKGDLQSSL |  |  | 17% |  | 2.8 h |  |  |  |  |  | 90% | 19% | 16% | 22% | 0% | 63% | 14% | 2e-05 M
MTEQQWNFA [Rv3875_1–9] | 52% | 25% | 2% | 13% | 1.4 h | 0% | 2% | 0% | 0% | 2e-08 M |  |  |  |  |  |  |  | 
NLKFQDAYN |  |  | 0% |  | 0.4 h |  |  |  |  |  | 123% | 9% | 8% | 0% | 0% | 7% | 0% | 1e-05 M
PAVYLLDGL |  |  | 63% |  | 1 h |  |  |  |  |  | 120% | 2% | 9% | 38% | 0% | 17% | 0% | 9E -08 M
QQKWDATAT [Rv3875_55–63] | 60% | 9% | 9% | 0% | 1.7 h | 0% | 8% | 4% | 29% | 9e-08 M |  |  |  |  |  |  |  | 
RAQDDYNGW |  |  | 0% |  | 1.2 h |  |  |  |  |  | 119% | 2% | 0% | 65% | 41% | 2% | 11% | 5e-07 M
RSSNLKFQD |  |  | 3% |  | 1.6 h |  |  |  |  |  | 104% | 11% | 11% | 26% | 14% | 64% | 0% | 1E -05 M
